According to patent US20040106545A1, “Compounds and methods for modulating cell adhesion” (priority 1996, published 2004):
Where two headings read alike, the source gives them in different places. Positions of bridges follow the written chain, without caps; N, C: chain ends. Residues, ends and D or L forms follow the SMILES beside them. *: point of attachment. For = O=C*

What was measured:
chick N-cadherin = target: T1, chick N-cadherin (Gallus gallus, UniProt P10288); assay: Neurite outgrowth of rat cerebellar neurons on N-cadherin expressing 3T3 monolayers (Example 15); assay type: cell-based; conditions: for inhibitory activity on N-cadherin dependent neurite outgrowth, structure/activity statements: Tables 8 and 9; for inhibition at 250 µg/mL / inhibition of N-cadherin dependent neurite outgrowth (in words): 250 μg/mL; for inhibition at 250 µg/mL / inhibition at 125 µg/mL: 16-18 hours, read-out: % Inhibition of N-Cadherin Dependent Neurite Outgrowth; for activity on N-cadherin dependent neurite outgrowth (in words): 125 micrograms/mL or below; for reduction in inhibitory activity on flanking HAV with E-cadherin amino acids: 250 μg/mL (Table 8); for inhibition at 125 µg/mL: 125 μg/mL
T1 construct: expressed in transfected cells; host or cells: 3T3 fibroblasts (monolayer); rat post-natal day 2-3 cerebellar neurons plated on top
T1 sequence (P10288 165-912): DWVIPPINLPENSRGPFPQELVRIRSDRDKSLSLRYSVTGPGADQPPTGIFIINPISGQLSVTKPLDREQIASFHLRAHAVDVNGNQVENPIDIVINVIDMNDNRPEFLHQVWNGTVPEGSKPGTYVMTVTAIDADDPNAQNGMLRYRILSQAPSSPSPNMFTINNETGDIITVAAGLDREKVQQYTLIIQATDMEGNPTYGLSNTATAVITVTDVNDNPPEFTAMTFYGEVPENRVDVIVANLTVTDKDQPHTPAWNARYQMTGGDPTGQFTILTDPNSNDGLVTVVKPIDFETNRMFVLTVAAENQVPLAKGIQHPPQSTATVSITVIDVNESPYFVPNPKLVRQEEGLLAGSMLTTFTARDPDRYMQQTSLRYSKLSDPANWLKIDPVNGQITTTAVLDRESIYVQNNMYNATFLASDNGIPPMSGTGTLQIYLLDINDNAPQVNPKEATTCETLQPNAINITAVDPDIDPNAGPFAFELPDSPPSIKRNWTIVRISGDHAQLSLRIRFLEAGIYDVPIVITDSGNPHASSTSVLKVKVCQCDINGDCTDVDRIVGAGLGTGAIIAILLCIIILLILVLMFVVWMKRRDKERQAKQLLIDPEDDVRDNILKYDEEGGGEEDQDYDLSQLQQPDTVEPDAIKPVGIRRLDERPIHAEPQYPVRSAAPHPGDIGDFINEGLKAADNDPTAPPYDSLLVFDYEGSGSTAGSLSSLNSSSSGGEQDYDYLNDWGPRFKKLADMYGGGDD
Protocol: Cell culture and neurite outgrowth assays. Co-cultures of cerebellar neurons on monolayers of control 3T3 cells and monolayers of transfected 3T3 cells that express physiological levels of chick N-cadherin or human L1 were established as previously described (Williams et al., Neuron 13:583-594, 1994). In brief, 80,000 3T3 cells (control and transfected) were plated into individual chambers of an eight-chamber tissue culture slide coated with polylysine and fibronectin and cultured in DMEM/10% FCS. After 24 hours, when confluent monolayers had formed, the medium was removed and 3000 cerebellar neurons isolated from post-natal day 2-3 rats were plated into each well in SATO media (Doherty et al., Nature 343:464-466, 1990) supplemented with 2% FCS. All of the test peptides were added immediately before the neurons as a 2× stock prepared in SATO/2% FCS. The co-cultures were maintained for 16-18 hours, at which time they were fixed and immunostained for GAP-43 which is present only in the neurons and delineates the neuritic processes. The mean length of the longest neurite per cell was measured for 150-200 neurons sampled in replicate cultures as previously described (Williams et al., Neuron 13:583-594, 1994). […] Dose-response curves were evaluated and the EC50 values determined.

N-cadherin = target: T2, N-cadherin (Gallus gallus, UniProt P10288); assay: Neurite outgrowth inhibition, rat neurons (Example 21); assay type: cell-based; conditions: 500 μg/mL
T2 construct: expressed in transfected cells; host or cells: 3T3 fibroblasts (monolayer)
T2 sequence (P10288 165-912): T1 sequence (P10288 165-912)

MDA-MB231 [1] = assay: Cytotoxicity, MTT assay, MDA-MB231; assay type: cell-based, human
Protocol: (§1) N—Ac-CHAVC-NH2 (SEQ ID NO:10) and the control peptide N—Ac-CHGVC-NH2 (SEQ ID NO:11) were evaluated for possible cytotoxic effects on human microvascular endothelial (HMVEC; Clonetics), human umbilical vein endothelial (HUVEC; ATCC #CRL-1730), IAFp2 (human fibroblast cell line; Institute Armand-Frapier, Montreal, Quebec), WI-38 (human fibroblast cell line; ATCC #CCL-75), MDA-MB231 (human breast cancer cell line; ATCC #HTB-26), and PC-3 (human prostate cancer cell line; ATCC #CRL-1435) cells utilizing the MTT assay (Plumb et al., Cancer Res. 49:4435-4440, 1989). Neither of the peptides was cytotoxic at concentrations up to and including 100 μM. Similarly, neither of the peptides was capable of inhibiting the proliferation of the above cell lines at concentrations up to 100 μM, as judged by ^3H-thymidine incorporation assays.

PC-3 [2] = assay: Cytotoxicity, MTT assay, PC-3; assay type: cell-based, human
Protocol: as §1

WI-38 = assay type: cell-based, human; conditions: 3 h
Protocol: as §1

PC-3 [3] = assay type: cell-based, human; conditions: 3 h
Protocol: as §1

IAFp2 = assay type: cell-based, human; conditions: 3 h
Protocol: as §1

HMVEC = assay type: cell-based, human; conditions: 3 h
Protocol: as §1

HUVEC = assay type: cell-based, human; conditions: 3 h
Protocol: as §1

MDA-MB231 [4] = assay type: cell-based, human; conditions: 3 h
Protocol: as §1

[5] = system: Madin Darby canine kidney (MDCK) cells; assay type: cell-based; conditions: for EC50, decrease of electrical resistance across MDCK cell monolayer: 18 hours
Protocol: Yet another assay evaluates the effect of a modulating agent on the electrical resistance across a monolayer of cells. For example, Madin Darby canine kidney (MDCK) cells can be exposed to the modulating agent dissolved in medium (e.g., at a final concentration of 0.5 mg/ml for a period of 24 hours). The effect on electrical resistance can be measured using standard techniques. This assay evaluates the effect of a modulating agent on tight junction formation in epithelial cells. In general, the presence of 500 μg/mL modulating agent should result in a statistically significant decrease in electrical resistance after 24 hours.
Madin Darby canine kidney (MDCK) cells were plated in Millicells (Millipore, Bedford, Mass.), at a density of 300,000 cells per Millicell, and cultured in Dulbecco's Modified Eagle Medium (DMEM; Sigma, St. Louis, Mo.) containing 5% fetal calf serum (Sigma, St. Louis, Mo.) until monolayers formed. Monolayers were exposed to the modulating agent dissolved in medium. The electrical resistance was measured using the EVOM device (World Precision Instruments, Sarasota, Fla.). At the time of measurement, fresh medium, with or without the modulating agent, may be added to the Millicells.

Molecule: N—Ac—CRAHAVDC—NH2: cyclic peptide, SEQ ID NO:28 (Ac-CRAHAVDC-NH2; disulfide 1-8 (inferred))
- inhibitory activity on N-cadherin dependent neurite outgrowth, structure/activity statements (chick N-cadherin): completely eliminated inhibitory activity
- inhibition of neurite outgrowth (N-cadherin): (inhibition observed

Molecule: N—Ac—CHAVDINGC—NH2: cyclic peptide, SEQ ID NO:76 (Ac-CHAVDINGC-NH2; disulfide 1-9 (inferred))
- inhibitory activity on N-cadherin dependent neurite outgrowth, structure/activity statements (chick N-cadherin): completely abrogates activity

Molecule: N—Ac—CLRAHAVC—NH2: cyclic peptide, SEQ ID NO:30 (Ac-CLRAHAVC-NH2; disulfide 1-8 (inferred))
- inhibitory activity on N-cadherin dependent neurite outgrowth, structure/activity statements (chick N-cadherin): detrimental affect

Molecule: CC(=O)N[C@H]1CSSC[C@@H](C(N)=O)NC(=O)[C@H](Cc2c[nH]cn2)NC(=O)CNC(=O)[C@H](C(C)C)NC1=O [N—Ac—CVGHC—NH2] (Ac-CVGHC-NH2; disulfide 1-5)
- IC50 (MDA-MB231 [1]): > 100 µM
- IC50 (PC-3 [2]): > 100 µM
- IC50 (WI-38): > 100 µM
- IC50 (PC-3 [3]): > 100 µM
- IC50 (IAFp2): > 100 µM
- IC50 (HMVEC): > 100 µM
- IC50 (HUVEC): 30 µM
- IC50 (MDA-MB231 [4]): > 100 µM

Molecule: N—Ac-LRAHAVDING-NH2: linear 10-mer, SEQ ID NO:79 [reference compound]
- % inhibition of N-cadherin dependent neurite outgrowth (chick N-cadherin): 68.8+/−4.1%

Molecule: CC(C)[C@@H]1NC(=O)[C@H](C)NC(=O)[C@H](Cc2c[nH]cn2)NC(=O)[C@@H](NC=O)CSSC[C@@H](C(=O)N[C@@H](CO)C(N)=O)NC1=O [H—C(O)—NH—CHAVCS—NH2] (For-CHAVCS-NH2; disulfide 1-5 (inferred))
- inhibition at 250 µg/mL (chick N-cadherin): 75.8 ± 5.6%

Molecule: CC(C)[C@@H]1NC(=O)[C@H](C)NC(=O)[C@H](Cc2c[nH]cn2)NC(=O)[C@@H](NS(C)(=O)=O)CSSC[C@@H](C(N)=O)NC1=O [CH3—SO2—NH—CHAVC—NH2]
- effect on electrical resistance across MDCK cells (in words) [5]: complete loss of activity
- EC50, decrease of electrical resistance across MDCK cell monolayer [5]: INACTIVE
- inhibition at 250 µg/mL (chick N-cadherin): 74.7 ± 10.5%

Molecule: N—Ac—CAHAVC—NH2: cyclic peptide, SEQ ID NO:22 (Ac-CAHAVC-NH2; disulfide 1-6 (inferred))
- inhibition of N-cadherin dependent neurite outgrowth (in words) (chick N-cadherin): potent inhibitors of neurite outgrowth
- activity on N-cadherin dependent neurite outgrowth (in words) (chick N-cadherin): lost activity
- inhibitory activity on N-cadherin dependent neurite outgrowth, structure/activity statements (chick N-cadherin): little affect

Molecule: N—Ac—CHAVSSC—NH2: cyclic peptide, SEQ ID NO:44 (Ac-CHAVSSC-NH2; disulfide 1-7 (inferred))
- EC50, decrease of electrical resistance across MDCK cell monolayer [5]: INACTIVE
- reduction in inhibitory activity on flanking HAV with E-cadherin amino acids (chick N-cadherin): substantial

Molecule: CC(=O)N[C@H]1CSSC[C@@H](C(N)=O)NC(=O)[C@H](Cc2ccc(O)cc2)NC(=O)[C@H](C(C)C)NC(=O)[C@H](C)NC(=O)[C@H](Cc2c[nH]cn2)NC1=O [N—Ac—CHAVYC—NH2] (Ac-CHAVYC-NH2; disulfide 1-6)
- inhibition at 125 µg/mL (chick N-cadherin): 64.9 ± 1.9%
- inhibition at 250 µg/mL (chick N-cadherin): 64.9%
- inhibitory activity on N-cadherin dependent neurite outgrowth, structure/activity statements (chick N-cadherin): potent inhibitors

Molecule: CC(=O)N[C@H]1CSSC[C@@H](C(N)=O)NC(=O)[C@@H]2CCCN2C(=O)[C@H](C(C)C)NC(=O)[C@H](C)NC(=O)[C@H](Cc2c[nH]cn2)NC1=O [N—Ac—CHAVPC—NH2] (Ac-CHAVPC-NH2; disulfide 1-6)
- inhibition at 125 µg/mL (chick N-cadherin): 58 ± 4.3%
- inhibitory activity on N-cadherin dependent neurite outgrowth, structure/activity statements (chick N-cadherin): potent inhibitors

Molecule: N—Ac—CLFSHAVC—NH2 (Ac-CLFSHAVC-NH2; disulfide 1-8 (inferred))
- effect on electrical resistance across MDCK cells (in words) [5]: loss of activity in this assay
- EC50, decrease of electrical resistance across MDCK cell monolayer [5]: INACTIVE

Molecule: N—Ac—CLRAHAVDC—NH2: cyclic peptide, SEQ ID NO:32 (Ac-CLRAHAVDC-NH2; disulfide 1-9 (inferred))
- inhibition of N-cadherin dependent neurite outgrowth (in words) (chick N-cadherin): potent inhibitors of neurite outgrowth
- activity on N-cadherin dependent neurite outgrowth (in words) (chick N-cadherin): lost activity
- inhibitory activity on N-cadherin dependent neurite outgrowth, structure/activity statements (chick N-cadherin): partial recovery of activity

Molecule: N—Ac—CHAVCE—NH2: cyclic peptide, SEQ ID NO:92 (Ac-CHAVCE-NH2; disulfide 1-5 (inferred))
- EC50, decrease of electrical resistance across MDCK cell monolayer [5]: INACTIVE

Molecule: N—Ac—CSHAVSC—NH2: cyclic peptide, SEQ ID NO:40 (Ac-CSHAVSC-NH2; disulfide 1-7 (inferred))
- EC50, decrease of electrical resistance across MDCK cell monolayer [5]: INACTIVE
- reduction in inhibitory activity on flanking HAV with E-cadherin amino acids (chick N-cadherin): complete

Molecule: CC(=O)N[C@H]1CSSC[C@@H](C(N)=O)NC(=O)[C@H](CC(=O)O)NC(=O)[C@H](C(C)C)NC(=O)CNC(=O)[C@H](Cc2c[nH]cn2)NC(=O)[C@H](C)NC1=O [N—Ac—CAHGVDC—NH2] (Ac-CAHGVDC-NH2; disulfide 1-7)
- IC50 (MDA-MB231 [1]): > 100 µM
- IC50 (PC-3 [2]): > 100 µM
- IC50 (WI-38): > 100 µM
- IC50 (PC-3 [3]): > 100 µM
- IC50 (IAFp2): > 100 µM
- IC50 (HMVEC): > 100 µM
- IC50 (HUVEC): > 100 µM
- IC50 (MDA-MB231 [4]): > 100 µM
